The values that follow come from patent publication US20260137698A1, “CYCLIN-DEPENDENT KINASE 7 INHIBITORS” (JOINT STOCK COMPANY «BIOCAD», priority 2022, published 2026).

Series [1] is described as follows: Pharmacokinetics in mice plasma following intravenous administration. Format: in vivo, CD-1 mice. The following applies: male, CD-1, mouse; for half-life: read-out: T½ (converted); for Vd: read-out: Vss. The method, then: (§1) Pharmacokinetic studies of the compounds were carried out on CD-1 mice, males, aged about 8 weeks, weighing 16-29 g. The animals were given a single oral (PO) administration (intragastrically) at a dose of 10 mg/kg in a formulation in the form of a 0.2% solution of hydroxypropyl methylcellulose (HPMC) in a 5% aqueous solution of glucose and a single IV-bolus administration (intravenously) at a dose of 1.0 mg/kg for 1277 and at a dose of 2.0 mg/kg for substances CDK7_1187, CDK7_1225, CDK7_1229 and CDK7_1276 in a formulation comprising 0.2% DMSO in 5% aqueous solution of glucose.
(§2) For each substance, 21-30 animals were used for each dose of PO and IV administration. All mice were weighed and randomized before dosing.
(§3) 3-5 animals were used for each time point. Each animal was sampled at one time point. At least 12 h before the start of the experiment, the animals were deprived of food while maintaining free access to water.
(§4) Animals from the PO and IV groups were subjected to blood sampling before administering the substance and after 0.5, 2, 4, 8, 12 and 24 h.
(§5) Blood was collected by cardiac puncture using the closed method. Blood was collected in a volume of 0.2 ml into polypropylene tubes comprising 20 μl of 5% EDTA. Blood plasma was separated by centrifugation at 10000 rpm for 10 minutes at 4±2° C. and transferred into clean labeled tubes.
(§6) Test blood plasma samples of mice from the experimental groups were obtained in a volume of 50 μl. Afterwards, […] of a solution of internal standard (tolbutamide (Sigma, T0891)) prepared in acetonitrile, at a concentration of 50 ng/ml, pre-cooled in the refrigerator at 2-8° C., was added to the samples, stirred in a vortex mixer (G560E, Scientific Industries) for 10 seconds and incubated at 4° C. for 15 minutes for protein precipitation. Samples were then centrifuged (5417R centrifuge, Eppendorf) at 1500 g for 10 minutes while cooling to 4° C. 150 μl of the supernatant were transferred to a 96-well plate for HPLC-MS/MS analysis. Quantitative determination of test compounds in blood plasma was carried out by absolute calibration method. The calibration curve was generated by analyzing plasma samples with supplementations of known amounts of the standard of the compound being determined. The lower limit of the quantitative determination of test compounds in blood plasma was 1 ng/ml, the analytical range of the technique was 1 ng/ml to 2000 ng/ml. The technique was partially validated in terms of selectivity, accuracy, precision, linearity, matrix effects, stability.
(§7) The Qtrap 5500 mass spectrometer (AB Sciex) in combination with the Agilent 1290 Infinity II HPLC liquid chromatograph (Agilent) and a cooling multisampler (Agilent 1290 Infinity II Multisampler G7167B) was used as an HPLC-MS/MS system. Chromatographic analysis was performed on a C18 reversed-phase HPLC column (YMC-Triart C18, 50*2 mm, 1.9 μm, YMC CO. Ltd). The mobile phase used was used a mixture of deionized water and acetonitrile supplemented with 0.1% formic acid in gradient mode, flow rate: 0.5 ml/min, column T=40° C., autosampler T=8° C., analysis time: 2.8 min. Mass spectrometric detection was performed in multiple reaction monitoring (MRM) mode. Precursor ions, fragment ions and collision energies for each substance were selected experimentally. Two Q1/Q3 transitions were used to record MRM chromatograms of the analyte and internal standard; one of transitions was used for quantitative calculations, the other one was used to confirm that the […] corresponds to a given substance. Based on the results of HPLC-MS/MS analysis of calibration samples using the Analyst 1.6.3 software, the calibration dependence of areas of chromatographic analyte peaks normalized to the signal of the internal standard on the concentration of the analyte was built.
(§8) Pharmacokinetic analysis was performed by non-compartmental method using the Phoenix WinNonlin 6.3 software package. […]

Series [2] is described as follows: Pharmacokinetics in mice plasma following oral administration. Format: in vivo, CD-1 mice. The note with it: dose 10 mg/kg; for F: absolute bioavailability, mice; for AUC(0-t) / Cmax / Tmax / half-life: male, CD-1, mouse, mice plasma; for half-life: read-out: T½ (converted). As for the experimental part: as §1, §2, §3, §4, §5, §6, §7, §8
Series [3] concerns NCI-H69 xenografts (small cell lung cancer). The series is described as follows: Antitumor activity in vivo, subcutaneous NCI-H69 xenograft model. Set-up: species or system BALB/c Nude mice. As for the experimental part:
The antitumor activity of CDK7_1187 in vivo was evaluated on a subcutaneous xenograft model of the NCl-H69 line (small cell lung cancer, ATCC® HTB-119™) transplanted to BALB/c Nude mice.
NCl-H69 cell line was cultured in RPMI-1640 medium (PanEco, Russia) with enrichment of the basal growth medium with L-glutamine at a concentration of 2 mM (PanEco, Russia) and 10% fetal bovine serum (Gibco, Thermo Fisher Scientific, USA).
The study used 20 BALB/c Nude mice (females) obtained from the Federal State Budgetary Scientific Institution “Federal Research Center Institute of Cytology and Genetics, Siberian Branch of Russian Academy of Sciences” (ICG SB RAS). BALB/c Nude mice were subcutaneously administered into the right lateral side of the body with […] of suspension containing 5×10^6 NCI-H69 tumor cells and Matrigel (Corning® Matrigel® Basement Membrane Matrix) at 1:1 ratio.
Linear dimensions of the tumor were determined using an electronic caliper. Volume of the tumor node was determined by the formula (1):
[formula] • where L and W are large and small diameters of the tumor node, respectively.
The efficacy of test product was measured by the index of tumor growth inhibition (TGI, %) calculated according to the formula (2):
[formula] • where Vc and Vp are mean volumes of the tumor node in the control group and the group of animals that received the test substance, respectively.
After achieving an average tumor volume of 130 mm^3, animals were divided into 2 groups of 10 animals, volume of the tumor node was used as a randomization criterion. The day of the first administration of the product was designated as day 0.
Test substance CDK7_1187 was administered intragastrically at a dose of 6 mg/kg daily, for 21 days. Before each administration, CDK7_1187 was diluted in 5% solution of glucose (Solopharm, Russia) and 0.1% solution of DMSO (Sigma, USA). The control group received a 5% solution of glucose and a 0.1% solution of DMSO in an analogous volume.
Statistical analysis was carried out using the GraphPad Prism 9 software package. Mann-Whitney U test was employed to assess the significance of differences when comparing the volumes of tumor nodes. Differences were identified as significant if p<0.05.

Like-named read-outs stand apart in the source and are kept apart here.

Usually AUC(0-t) stands for exposure summed from dosing to a finite time, without extrapolation to infinity. A word on the clearance: it is the volume of plasma or blood freed of the substance per unit of time. For orientation: Cmax means the peak of the concentration-time curve. Usually Tmax stands for the time from dosing to the highest level. For the molecule `CC(C)N1CCCc2c(-c3nc(N[C@H]4CCC5(CC5)NC4)ncc3C(F)(F)F)c[nH]c2C1=O` [CDK7_1277, 3-(2-{[(6S)-4-azaspiro[2.5]octan-6-yl]amino}-5-(trifluoromethyl)py-rimidin-4-yl)-7-(propan-2-yl)-1H,4H,5H,6H,7H, 8H-pyrrolo[2,3-c]azepin-8-one], in series [1] (dose 1 mg/kg), the AUC(0-t) worked out at 363 ng·h/mL, the clearance is 45 mL/min/kg, the half-life is 2.1 h and the Vd was 6.89 L/kg. For the same molecule, in series [2], the F is listed as 85.8%, the AUC(0-t) was found to be 3110 ng·h/mL, the Cmax was determined as 893 ng/mL and the time of peak concentration (Tmax) stood at 0.5 h. In addition, in series [2], the half-life was 3.8 h.

Take `CN1CCCc2c(-c3nc(N[C@H]4CCC(C)(C)NC4)ncc3C(F)(F)F)c[nH]c2C1=O` [CDK7_1187, 3-(2-{[(3S)-6,6-dimethylpiperidin-3-yl]amino}-5-(trifluoromethyl)py-rimidin-4-yl)-7-methyl-1H,4H,5H,6H,7H, 8H-pyrrolo[2,3-c]azepin-8-one]: the “tumor volume versus control group” value in series [3] (6 mg/kg daily, days 17 and 21, Mann-Whitney p<0.05) is listed as “statistically significantly less”. The “index of tumor growth inhibition (TGI)” value in series [3] (BALB/c Nude mice, 6 mg/kg intragastrically daily for 21 days, end of the observation period) was determined as 48%. Besides, the TGI index in series [3] (Day 9, intragastrically 6 mg/kg daily) is recorded as 10%. In series [3] (Day 13, intragastrically 6 mg/kg daily), this molecule returned a TGI index of 36%. The molecule also registered a TGI index in series [3] (Day 17, intragastrically 6 mg/kg daily) of 40%. Further, the TGI index in series [3] (Day 21, intragastrically 6 mg/kg daily) amounted to 48%. Moreover, in series [1] (dose 2 mg/kg), the AUC(0-t) turned out to be 314 ng·h/mL, the clearance was 103 mL/min/kg, the half-life was 1.7 h and the Vd came out at 10.1 L/kg. Moreover, in series [2], the F came to 72.7%, the AUC(0-t) turned out to be 1160 ng·h/mL, the Cmax came to 309 ng/mL and the Tmax was 0.5 h. In series [2], the half-life is 1.7 h.

For the molecule `O=C1c2[nH]cc(-c3nc(N[C@H]4CCC5(CC5)NC4)ncc3C(F)(F)F)c2CCCN1C1CC1` [CDK7_1276, 3-(2-{[(6S)-4-azaspiro[2.5]octan-6-yl]amino}-5-(trifluoromethyl)py-rimidin-4-yl)-7-cyclopropyl-1H,4H,5H,6H,7H, 8H-pyrrolo[2,3-c]azepin-8-one], in series [1] (dose 2 mg/kg), the AUC(0-t) stood at 1380 ng·h/mL, the clearance was 21.5 mL/min/kg, the half-life is 4.15 h and the Vd stood at 6.52 L/kg. Further, in series [2], the F amounted to 116%, the AUC(0-t) amounted to 7980 ng·h/mL, the maximum concentration (Cmax) amounted to 1510 ng/mL and the Tmax turned out to be 0.5 h. For the same molecule, the half-life in series [2] is 2 h.

For `CC1(C)CC[C@H](Nc2ncc(C(F)(F)F)c(-c3c[nH]c4c3CCCN(C3CC3)C4=O)n2)CN1` [CDK7_1225, 7-cyclopropyl-3-(2-{[(3S)-6,6-dimethylpiperidin-3-yl]amino}-5-(trifluoromethyl)py-rimidin-4-yl)-1H,4H,5H,6H,7H, 8H-pyrrolo[2,3-c]azepin-8-one], in series [1] (dose 2 mg/kg), the AUC(0-t) amounted to 691 ng·h/mL, the clearance is 48 mL/min/kg, the half-life is 1.8 h and the Vd is 6.3 L/kg. In series [2], the F came to 102%, the AUC(0-t) is 3540 ng·h/mL, the Cmax was determined as 712 ng/mL and the Tmax was 2 h. In addition, the half-life in series [2] was 1.9 h.

Consider `CC(C)N1CCCc2c(-c3nc(N[C@H]4CCC(C)(C)NC4)ncc3C(F)(F)F)c[nH]c2C1=O` [CDK7_1229, 3-(2-{[(3S)-6,6-dimethylpiperidin-3-yl]amino}-5-(trifluoromethyl)py-rimidin-4-yl)-7-(propan-2-yl)-1H,4H,5H,6H,7H, 8H-pyrrolo[2,3-c]azepin-8-one], for which, in series [1] (dose 2 mg/kg), the AUC(0-t) was determined as 1140 ng·h/mL, the clearance is 29 mL/min/kg, the half-life was 2 h and the Vd amounted to 4.17 L/kg. Further, in series [2], the F stood at 102%, the AUC(0-t) turned out to be 5790 ng·h/mL, the Cmax turned out to be 1070 ng/mL and the time to peak (Tmax) was determined as 0.5 h. Further, the half-life in series [2] is 2.5 h.
